Assay results reported in PMC7717570, “Deciphering the enzymatic target of a new family of antischistosomal agents bearing a quinazoline scaffold using complementary computational tools” (Journal of Enzyme Inhibition and Medicinal Chemistry, 2020).
Where two headings read alike, the source gives them in different places. Values belong to the compound of their own block, whether it stands above or below them.

Tests used:
[1] = Microsomal stability, mouse liver microsomes (S9), Phase-I (CYP450-NADPH); format: in vitro ADME; settings: 5 µM
Procedure: (§1) Mouse or human liver microsomes (S9), reduced nicotinamide adenine dinucleotide phosphate (NADPH) generating system solutions and uridine glucuronosyltransferase (UGT) reaction mix (BD Biosciences) were kept at −80 °C. The test compounds and reference compound diclofenac were formulated in DMSO at […]. The assay was carried out based on the BD Biosciences Guidelines for Use (TF000017 Rev1.0) with minor adaptations. The metabolic stability of the compounds was studied through the CYP450 superfamily (Phase-I metabolism) by fortification with NADPH and through UGT enzymes (Phase-II metabolism) by fortification with uridine diphosphate glucuronic acid (UDPGA). For CYP450 and other NADPH dependent enzymes, the compounds were incubated at 5 µM together with 0.5 mg/mL S9 in potassium phosphate buffer in a reaction started by the addition of 1 mM NADP. At defined time points, 20 µL was withdrawn from the reaction mixture and 80 µL cold acetonitrile (ACN) was added to inactivate the enzymes and precipitate the protein. The mixture was vortexed for 30 s and centrifuged at 4 °C for 5 min to collect the supernatant. For UGT enzymes, the compounds were incubated at 5 µM together with 0.5 mg/mL S9 in a reaction started by the addition of 2 mM UDPGA cofactor. The loss of parent compound was determined using liquid chromatography (UPLC) (Waters Aquity^TM) coupled with tandem quadrupole mass spectrometry (MS^2) (Waters Xevo^TM), equipped with an electrospray ionisation (ESI) interface and operated in multiple reaction monitoring (MRM) mode.

[2] = Microsomal stability, mouse liver microsomes (S9), Phase-II (UGT enzymes); format: in vitro ADME; settings: 5 µM
Procedure: as §1

[3] = Microsomal stability, human liver microsomes (S9), Phase-I (CYP450-NADPH); format: in vitro ADME; settings: 5 µM
Procedure: as §1

[4] = Microsomal stability, human liver microsomes (S9), Phase-II (UGT enzymes); format: in vitro ADME; settings: 5 µM
Procedure: as §1

[5] = system: Schistosoma mansoni mature worms; assay: In vitro S. mansoni worm killing; set-up: key to Worm killing (male worms) / Worm killing (female worms): % worm mortality = dead worms / total worms × 100; settings: for killing at 5 µM / killing at 10 µM / killing at 25 µM / killing at 50 µM / killing at 100 µM / EC50: Schistosoma mansoni; for killing at 5 µM / killing at 10 µM / killing at 25 µM / killing at 50 µM / killing at 100 µM: 120 h, read-out: Worm killing (% of total); for Worm killing (female worms) / Worm killing (male worms): day 5
Procedure: The percentage reduction of worm or egg burden in each treated group was calculated. […] Results are expressed as mean ± SEM. A two-tailed, unpaired Student’s t-test was used to detect the significance of difference between the means of different groups. […] Stock solutions of 5 mM PZQ and the quinazoline derivatives 2–13 were prepared in DMSO. Concentrations of 100 µM, 50 µM, 25 µM, 10 µM and 5 µM were freshly prepared on the day of experiment in RPMI-1640 medium. All compounds were initially tested at 100 and 50 µM; those showing worm killing were further tested at 25, 10 and 5 µM. Worms were obtained from SBSC of TBRI. Six to eight worms were placed in 12-well tissue culture plates and fresh RPMI-1640 medium (supplemented with glutamine, 20% newborn calf serum and streptomycin, penicillin, and gentamicin), containing the indicated concentration of the test compound was added[20]^,[21]. Worms were incubated overnight in a CO2 incubator at 37 °C. On the 2nd day, worms were examined by microscopy, washed three times with normal saline, fresh medium was added and the incubation was continued. On the 3rd day, worm motility was observed and on the 4th day, medium was changed again. On day 5 (end of the observation period), worms were microscopically examined for their motility and appearance. Each concentration was tested in duplicate, and the final recording of percent worm mortality was determined as the number of dead worms [contracted and opaque] divided by the total number of worms × 100. Negative controls used medium without additions or medium with 2% DMSO; positive control media containing identical concentrations of PZQ were tested in parallel.

[6] = system: Schistosoma mansoni worm couples; assay: S. mansoni ovipositing capacity and coupling; settings: for inhibition at 5 µM / inhibition at 10 µM / inhibition at 25 µM / inhibition at 50 µM / inhibition at 100 µM: Schistosoma mansoni, 120 h, read-out: Reduction in number of eggs (%)
Procedure: Stock solutions of 5 mM PZQ and the quinazoline derivatives 2–13 were prepared in DMSO. Concentrations of 100 µM, 50 µM, 25 µM, 10 µM and 5 µM were freshly prepared on the day of experiment in RPMI-1640 medium. All compounds were initially tested at 100 and 50 µM; those showing worm killing were further tested at 25, 10 and 5 µM. 12-well tissue culture plates were used, each well containing 6–8 worms with at least one worm couple. Worms were incubated overnight in a CO2 incubator at 37 °C. Each concentration was tested in duplicate wells. On day 4, eggs were counted and discarded and the medium was changed. On day 5 (end of observation period) newly deposited eggs were counted. The final egg number is the total count of days 4 and 5 for each concentration tested and the final recording of the percentage of egg reduction was determined as [the total number of eggs on days 4 and 5 of control – the total number of eggs on days 4 and 5 of treated]/the total number of eggs on days 4 and 5 of control × 100.

[7] = 5 µM, day 5, mature (6 weeks old) worms, dose-titration (Table 3)
[8] = 10 µM, day 5, mature (6 weeks old) worms, dose-titration (Table 3)
[9] = 25 µM, day 5, mature (6 weeks old) worms, dose-titration (Table 3)
[10] = 50 µM, day 5, initial test (Table 2)
[11] = 50 µM, day 5, mature (6 weeks old) worms, dose-titration (Table 3)
[12] = 100 µM, day 5, initial test (Table 2)
[13] = 100 µM, day 5, mature (6 weeks old) worms, dose-titration (Table 3)
[14] = males and females together, read-out: EC50 (worm killing)
[15] = read-out: EC50 (worm killing, female worms)
[16] = read-out: EC50 (worm killing, male worms)
[17] = 10 µM, dose-titration (Table 3)
[18] = 25 µM, dose-titration (Table 3)
[19] = 50 µM, dose-titration (Table 3)
[20] = 100 µM, dose-titration (Table 3)

- % Parent compound remaining upon incubation ([1]; 0 h): 100%
- % Parent compound remaining upon incubation ([1]; 0.25 h): 91%
- % Parent compound remaining upon incubation ([1]; 0.5 h): 51%
- % Parent compound remaining upon incubation ([1]; 1 h): 44%
- % Parent compound remaining upon incubation ([2]; 0 h): 100%
- % Parent compound remaining upon incubation ([2]; 0.25 h): 101%
- % Parent compound remaining upon incubation ([2]; 0.5 h): 103%
- % Parent compound remaining upon incubation ([2]; 1 h): 105%
- % Parent compound remaining upon incubation ([3]; 0 h): 100%
- % Parent compound remaining upon incubation ([3]; 0.25 h): 104%
- % Parent compound remaining upon incubation ([3]; 0.5 h): 61%
- % Parent compound remaining upon incubation ([3]; 1 h): 67%
- % Parent compound remaining upon incubation ([4]; 0 h): 100%
- % Parent compound remaining upon incubation ([4]; 0.25 h): 94%
- % Parent compound remaining upon incubation ([4]; 0.5 h): 95%
- % Parent compound remaining upon incubation ([4]; 1 h): 97%
Compound: COc1ccc(Cn2c(=O)c3cc(Cl)ccc3n(Cc3ccc(C(F)(F)F)cc3)c2=O)cc1 [compound 9, 6-Chloro-1-(4-(trifluoromethyl)benzyl)-3-(4-methoxybenzyl)quinazolin-2,4(1H,3H)-dione]
- killing at 5 µM [5, 7]: 0%
- killing at 10 µM [5, 8]: 0%
- killing at 25 µM [5, 9]: 0%
- killing at 50 µM [5, 10]: 29%
- killing at 50 µM [5, 11]: 88%
- killing at 100 µM [5, 12]: 100%
- killing at 100 µM [5, 13]: 100%
- EC50 [5, 14]: 47 µM
- EC50 [5, 15]: 49 µM
- EC50 [5, 16]: 41 µM
- Worm killing (female worms) ([5]; 5 µM): 0
- Worm killing (female worms) ([5]; 10 µM): 0
- Worm killing (female worms) ([5]; 25 µM): 0
- Worm killing (female worms) ([5]; 50 µM): 75
- Worm killing (female worms) ([5]; 100 µM): 100
- Worm killing (male worms) ([5]; 5 µM): 0
- Worm killing (male worms) ([5]; 10 µM): 0
- Worm killing (male worms) ([5]; 25 µM): 0
- Worm killing (male worms) ([5]; 50 µM): 100
- Worm killing (male worms) ([5]; 100 µM): 100
- Uncoupling ([6]; 5 µM, dose-titration (Table 3)): No
- Uncoupling [6, 17]: No
- Uncoupling [6, 18]: Yes
- Reduction in number of eggs (%) [6, 19]: 100%
- Uncoupling [6, 19]: Yes
- Uncoupling ([6]; 50 µM, initial test (Table 2)): Yes
- Reduction in number of eggs (%) [6, 20]: 100%
- Uncoupling [6, 20]: Yes
- Uncoupling ([6]; 100 µM, initial test (Table 2)): Yes
- inhibition at 5 µM ([6]; 5 µM, dose-titration (Table 3)): 67%
- inhibition at 10 µM [6, 17]: 73%
- inhibition at 25 µM [6, 18]: 100%
- inhibition at 50 µM ([6]; 50 µM, initial test (Table 2)): 100%
- inhibition at 100 µM ([6]; 100 µM, initial test (Table 2)): 100%

- % Parent compound remaining upon incubation ([1]; 0 h): 100%
- % Parent compound remaining upon incubation ([1]; 0.25 h): 85%
- % Parent compound remaining upon incubation ([1]; 0.5 h): 39%
- % Parent compound remaining upon incubation ([1]; 1 h): 32%
- % Parent compound remaining upon incubation ([2]; 0 h): 100%
- % Parent compound remaining upon incubation ([2]; 0.25 h): 89%
- % Parent compound remaining upon incubation ([2]; 0.5 h): 83%
- % Parent compound remaining upon incubation ([2]; 1 h): 91%
- % Parent compound remaining upon incubation ([3]; 0 h): 100%
- % Parent compound remaining upon incubation ([3]; 0.25 h): 108%
- % Parent compound remaining upon incubation ([3]; 0.5 h): 83%
- % Parent compound remaining upon incubation ([3]; 1 h): 65%
- % Parent compound remaining upon incubation ([4]; 0 h): 100%
- % Parent compound remaining upon incubation ([4]; 0.25 h): 102%
- % Parent compound remaining upon incubation ([4]; 0.5 h): 106%
- % Parent compound remaining upon incubation ([4]; 1 h): 98%
Compound: COc1cc2c(=O)n(Cc3ccc(F)cc3)c(=O)n(Cc3ccc(C(F)(F)F)cc3)c2cc1OC [compound 10, 3-(4-Fluorobenzyl)-1-(4-(trifluoromethyl)benzyl)-6,7-dimethoxyquinazolin-2,4(1H,3H)-dione]
- killing at 5 µM [5, 7]: 0%
- killing at 10 µM [5, 8]: 8%
- killing at 25 µM [5, 9]: 50%
- killing at 50 µM [5, 10]: 93%
- killing at 50 µM [5, 11]: 100%
- killing at 100 µM [5, 12]: 100%
- killing at 100 µM [5, 13]: 100%
- EC50 [5, 14]: 25 µM
- EC50 [5, 15]: 26 µM
- EC50 [5, 16]: 20 µM
- Worm killing (female worms) ([5]; 5 µM): 0
- Worm killing (female worms) ([5]; 10 µM): 0
- Worm killing (female worms) ([5]; 25 µM): 33
- Worm killing (female worms) ([5]; 50 µM): 100
- Worm killing (female worms) ([5]; 100 µM): 100
- Worm killing (male worms) ([5]; 5 µM): 0
- Worm killing (male worms) ([5]; 10 µM): 14
- Worm killing (male worms) ([5]; 25 µM): 63
- Worm killing (male worms) ([5]; 50 µM): 100
- Worm killing (male worms) ([5]; 100 µM): 100
- Uncoupling ([6]; 5 µM, dose-titration (Table 3)): No
- Uncoupling [6, 17]: No
- Uncoupling [6, 18]: Yes
- Uncoupling [6, 19]: Yes
- Uncoupling ([6]; 50 µM, initial test (Table 2)): Yes
- Uncoupling [6, 20]: Yes
- Uncoupling ([6]; 100 µM, initial test (Table 2)): Yes
- inhibition at 5 µM ([6]; 5 µM, dose-titration (Table 3)): 77%
- inhibition at 10 µM [6, 17]: 80%
- inhibition at 25 µM [6, 18]: 100%
- inhibition at 50 µM ([6]; 50 µM, initial test (Table 2)): 100%
- inhibition at 100 µM ([6]; 100 µM, initial test (Table 2)): 100%
